Data set [1] relates to MUTU-1 Burkitt lymphoma cell line (EBV+). To be noted: 24 h.
For data set [2], the system named is DG-75 Burkitt lymphoma cell line (EBV−, chemoresistant). The data set is described as follows: cells. To be noted: Homo sapiens, DG-75, 48 h; for viability at 1 µM: read-out: DG-75 Cell Viability % 1 μM, 1 μM, 48 h; for viability at 10 µM: read-out: DG-75 Cell Viability % 10 μM, 10 μM, 48 h; for IC50: read-out: IC50 DG-75 48 h.
The subject of data set [3] is MUTU-1 Burkitt lymphoma cell line (EBV+). Put plainly: cells. To be noted: Mutu-1, 24 h; for IC50: read-out: IC50 MUTU-I 24 h; for viability at 1 µM: read-out: MUTU-1 Cell Viability % 1 μM, 1 μM, 24 h; for viability at 10 µM: read-out: MUTU-1 Cell Viability % 10 μM, 10 μM, 24 h.
Data set [4] deals with DG-75 Burkitt lymphoma cell line (EBV−, chemoresistant). Conditions: 48 h.
For data set [5], the system named is MUTU-1 Burkitt's lymphoma cell line. The data set is described as follows: FITC Annexin V/PI FACS analysis of apoptosis in MUTU-I cells. Format: cell-based. To be noted: 24 h. Here is the method: (§1) BL cells DG-75 and MUTU-1 (750,000) were treated with the specified concentration of the selected compound and incubated for 24 h (MUTU-1) or 48 h (DG-75) with taxol as the positive control. Samples were harvested by centrifugation and the pellets were rinsed with 0.5 mL of Ca^2+ Annexin V binding buffer (0.1 M HEPES, pH 7.4; 1.4 M NaCl; 25 mM CaCl2) each and pelleted again by centrifugation. Supernatants were decanted and the pellets were suspended again in 50 µL FITC Annexin V (diluted 1:33 in Ca^2+ Annexin V binding buffer), the samples were then placed on ice and incubated for 10 min in the dark. After the incubation period 0.5 mL of Ca^2+ Annexin V binding buffer was added and samples were pelleted by centrifugation. The supernatant was decanted and the pellet was suspended in PI solution (500 µL; 0.5 µg/mL). After 1 h, the samples were recorded using a CyAn ADP flow cytometer (Beckman Coulter Inc., Brea, CA, USA). 10,000 cells were analysed with the Flowjo software package. Taxol was used as a positive control for cell death.
(A flow cytometer gives signals particle by particle.)

For data set [6], the system named is DG-75 Burkitt's lymphoma cell line. Put plainly: FITC Annexin V/PI FACS analysis of apoptosis in DG-75 cells. It is filed as cell-based. Conditions: 48 h. Here is the method: as §1
A short description of data set [7]: HPLC stability study in phosphate buffers. It is filed as physicochemical. Here is the method: The HPLC stability studies for compound 16a were performed using a Symmetry® column (C18, 5 µm, 4.6 × 150 mm), detector Waters 2487 Dual Wavelength Absorbance, HPLC pump: Waters 1525 binary and Autosampler: Waters 717 plus (Waters Corporation, Milford, MA, USA). Samples were detected at wavelength of 254 nm. The chromatography was performed with the following optimised conditions: mobile phase: (acetonitrile (80%): water (20%)), run time: 10 min, flow rate: 1 mL/min, with detection at 254 nm. Compound 16a (5 mg) was dissolved in the mobile phase (10 mL) to provide the stock solution for the experiment. The phosphate buffers were prepared following the British Pharmacopoeia monograph 2019 at the selected pH 4, pH 7.4 and pH 9. To a volume of the appropriate buffer (1 mL), stock solution (30 μL) was added, and the solution was shaken and then used immediately for the experiment. Samples of the solution were then analysed over the following 48 h period at selected time intervals (t = 0 min, 5 min, 30 min, 60 min, 90 min, 120 min, 24 h and 48 h).

Like-named read-outs stand apart in the source and are kept apart here.

As to `O=[N+]([O-])/C=C/c1c2ccccc2cc2ccccc12` [Compound 12a, (E)-9-(2-nitrovinyl)anthracene], the “MUTU-1 Cell Viability % 10 μM” value in data set [1] worked out at 5.9%. In data set [2], the viability at 1 µM was 94.6%, the viability at 10 µM was below 14% and the IC50 was found to be 2080 nM. In data set [3], the IC50 was 2570 nM and the viability at 1 µM came to 81.9%. Besides, in data set [4], the “DG-75 Cell Viability % 10 μM” value turned out to be 14.0%. For the same compound, in data set [5], the “apoptosis in MUTU-I at 1 µM” value is “little effect” and the “apoptosis in MUTU-I at 10 µM” value worked out at 90%. Moreover, in data set [6], the “apoptosis in DG-75 at 1 µM” value was found to be 10% and the “apoptosis in DG-75 at 10 µM” value worked out at 82%.

The compound `C/C(=C\C12c3ccccc3C(c3ccccc31)C1C(=O)OC(=O)C12)[N+](=O)[O-]` (stereo not drawn) [Compound 13b, (E)-9-(2-Nitroprop-1-en-1-yl)-9,10-dihydro-9,10-[3,4]furanoanthracene-12,14-dione] gave a melting point of 256 to 258 °C. Besides, the “cell viability in MUTU-I cell line (1 and 10 μM together or concentration not stated)” value in data set [1] is recorded as 7–24%. For the same compound, in data set [2], the viability at 1 µM turned out to be 1% and the viability at 10 µM was 0.47%. In addition, in data set [3], the viability at 1 µM was 11.7% and the viability at 10 µM stood at 7.2%. Besides, the “DG-75 Cell Viability % 1 μM” value in data set [4] was determined as 1.1%.

In turn, `O=C1NC(=O)C2C1C1c3ccccc3C2(/C=C/[N+](=O)[O-])c2ccccc21` (stereo not drawn) [Compound 13g, (E)-9-(2-Nitrovinyl)-9,10-dihydro-9,10-[3,4]epipyrroloanthracene-12,14-dione] returned a melting point of 176 to 178 °C. Further, in data set [2], the viability at 1 µM amounted to 1% and the viability at 10 µM was determined as 11.7%. For the same compound, in data set [3], the viability at 1 µM amounted to 0.47% and the viability at 10 µM is 7.2%. In addition, the “DG-75 Cell Viability % 1 μM” value in data set [4] is recorded as 1.1%.

`O=C1NC(=O)C2C1C1(Cl)c3ccccc3C2(C=C[N+](=O)[O-])c2ccccc21` (stereo not drawn) [Compound 13j, (E)-9-Chloro-10-(2-nitrovinyl)-9,10-dihydro-9,10-[3,4]epipyrroloanthracene-12,14-dione]: in data set [1], the “MUTU-1 Cell Viability % 1 μM” value is recorded as 0.70%; the “cell viability in MUTU-I cell line (1 and 10 μM together or concentration not stated)” value is 0.4–13.5%. For the same compound, in data set [2], the viability at 1 µM turned out to be 12.1%, the viability at 10 µM was 5.9% and the IC50 amounted to 780 nM. In data set [3], the IC50 was 250 nM, the viability at 1 µM is below 1% and the viability at 10 µM came out at 0.62%. Further, the “cell viability in DG-75 cell line (1 and 10 μM together or concentration not stated)” value in data set [4] is 0.4–13.5%. Also, the “apoptosis in MUTU-I at 0.5 µM” value in data set [5] is on record as above 90%. Besides, in data set [6], the “apoptosis in DG-75 at 10 µM” value came to 90%.

For `O=C1C2C3c4ccccc4C(C=C[N+](=O)[O-])(c4ccccc43)C2C(=O)N1c1ccccc1` (stereo not drawn) [Compound 16a, (E)-9-(2-Nitrovinyl)-13-phenyl-9,10-dihydro-9,10-[3,4]epipyrroloanthracene-12,14-dione], the “MUTU-1 Cell Viability % 1 μM” value in data set [1] was found to be 10.3%. In data set [2], the viability at 10 µM stood at 1.1% and the IC50 is 710 nM. Besides, in data set [3], the IC50 is 210 nM, the viability at 1 µM worked out at 10% and the viability at 10 µM amounted to 1.4%. Besides, in data set [7] (pH 4 phosphate buffer, read-out: half-life (t½) at pH 4 (converted)), the half-life at 14.6 µg/mL was 11 h. Further, the half-life at 14.6 µg/mL in data set [7] (pH 7.4 phosphate buffer, read-out: half-life (t½) at pH 7.4 (converted)) is 10.5 h. In addition, the half-life at 14.6 µg/mL in data set [7] (pH 9 phosphate buffer, read-out: half-life (t½) at pH 9) was above 24 h. The “DG-75 Cell Viability % 1 μM” value in data set [4] is on record as below 6%. In data set [5], the “apoptosis in MUTU-I at 0.2 µM” value worked out at 46%, the “apoptosis in MUTU-I at 0.5 µM” value was “over 80%”, the “apoptosis in MUTU-I at 1 µM” value is listed as “over 80%” and the “apoptosis in MUTU-I at 10 µM” value was “over 80%”. Also, the “apoptosis in DG-75 at 10 µM” value in data set [6] came to 92%. Further, the “apoptosis in DG-75 at lower concentrations” value in data set [6] (concentrations lower than 10 µM) is on record as below 5%.

Turning to `O=C1C2C(C(=O)N1c1ccccc1)C1(/C=C/[N+](=O)[O-])c3ccccc3C2(Cl)c2ccccc21` (stereo not drawn) [Compound 16d, (E)-9-Chloro-10-(2-nitrovinyl)-13-phenyl-9,10-dihydro-9,10-[3,4]epipyrroloanthracene-12,14-dione], the “cell viability in MUTU-I cell line (1 and 10 μM together or concentration not stated)” value in data set [1] was 0.4–13.5%. In addition, in data set [2], the viability at 1 µM was below 14%, the viability at 10 µM came to 5.1% and the IC50 was 590 nM. Besides, in data set [3], the IC50 turned out to be 220 nM, the viability at 1 µM is 0.77% and the viability at 10 µM came to 0.41%. In addition, in data set [4], the “DG-75 Cell Viability % 1 μM” value was determined as 13.5%; the “cell viability in DG-75 cell line (1 and 10 μM together or concentration not stated)” value is recorded as 0.4–13.5%. Further, the “apoptosis in MUTU-I at 0.2 µM” value in data set [5] is reported as 63%. Moreover, in data set [6], the “apoptosis in DG-75 at 1 µM” value turned out to be 15% and the “apoptosis in DG-75 at 10 µM” value came to 44%.

With `N#CC1CC2c3ccccc3C1(/C=C/[N+](=O)[O-])c1ccccc12` (stereo not drawn) [Compound 19a, (E)-10-(2-Nitrovinyl)-9,10-dihydro-9,10-ethanoanthracene-11-carbonitrile], in data set [2], the viability at 1 µM is 20.6%, the viability at 10 µM worked out at 0% and the concentration for half-maximal inhibition (IC50) is 690 nM. Besides, in data set [3], the IC50 was determined as 380 nM, the viability at 1 µM came to 9% and the viability at 10 µM worked out at 0%. The “apoptosis in MUTU-I at 0.5 µM” value in data set [5] is above 90%. Besides, in data set [6], the “apoptosis in DG-75 at 10 µM” value was 87%.

For the compound `O=[N+]([O-])C=CC12c3ccccc3C(Cl)(c3ccccc31)c1ccccc12` [Compound 20d, (E)-9-Chloro-10-(2-nitrovinyl)-9,10-dihydro-9,10-[1,2]benzenoanthracene], the melting point lay in the range of 259 to 261 °C. Further, the “cell viability in MUTU-I cell line (1 and 10 μM together or concentration not stated)” value in data set [1] is below 6%. Moreover, in data set [2], the viability at 1 µM came to 46% and the viability at 10 µM worked out at 0%. For the same compound, in data set [3], the half-maximal inhibitory concentration (IC50) was determined as 280 nM, the viability at 1 µM turned out to be 0.95% and the viability at 10 µM amounted to 0.34%.

`N#C/C=C/C12c3ccccc3C(c3ccccc31)C1C(=O)NC(=O)C12` (stereo not drawn) [Compound 23b, (E)-3-(12,14-Dioxo-9,10-[3,4]epipyrroloanthracen-9(10H)-yl)acrylonitrile] gave a melting point of 289 to 300 °C. In data set [2], the viability at 1 µM stood at 101% and the viability at 10 µM is 54%. Also, in data set [3], the viability at 1 µM is 79.4% and the viability at 10 µM is 79%. Moreover, in data set [4], the “DG-75 Cell Viability % 10 μM” value is given as 54.1%.

In turn, `N/N=C/C12c3ccccc3C(Cl)(c3ccccc31)C1C(=O)NC(=O)C12` (stereo not drawn) [Compound 23i, (E)-9-Chloro-10-(hydrazonomethyl)-9,10-dihydro-9,10-[3,4]epipyrroloanthracene-12,14-dione] came in with a melting point of 241 to 244 °C. Besides, in data set [2], the viability at 1 µM came to 85.8% and the viability at 10 µM was 19%. Also, in data set [3], the viability at 1 µM was 102% and the viability at 10 µM worked out at 106%. The “DG-75 Cell Viability % 10 μM” value in data set [4] came out at 18.9%.

On to `CC(=O)O[C@H]1C(=O)[C@@]2(C)[C@H]([C@H](OC(=O)c3ccccc3)[C@]3(O)C[C@H](OC(=O)[C@H](O)[C@@H](NC(=O)c4ccccc4)c4ccccc4)C(C)=C1C3(C)C)[C@]1(OC(C)=O)CO[C@@H]1C[C@@H]2O` [Taxol, taxol, reference compound], for which the “MUTU-1 Cell Viability % 10 μM” value in data set [1] stood at 9.8%. For the same compound, in data set [2], the viability at 1 µM amounted to 48.8%, the viability at 10 µM worked out at 10% and the IC50 came out at 1320 nM. For the same compound, in data set [3], the IC50 is 320 nM, the viability at 1 µM is 30.4% and the viability at 10 µM was found to be 10%. Besides, the “DG-75 Cell Viability % 10 μM” value in data set [4] is listed as 9.9%. Moreover, in data set [5], the “apoptosis in MUTU-I at 1 µM” value came to 63% and the “apoptosis in MUTU-I at 10 µM” value is given as 87%. In addition, in data set [6], the “apoptosis in DG-75 at 1 µM” value is 21% and the “apoptosis in DG-75 at 10 µM” value is given as 73%.

The term viability denotes a read-out of living cells in per cent, often relative to untreated cells. What is called IC50 is the concentration that inhibits the measured activity by half. What is called melting point is the temperature of the solid-liquid transition. One may read the half-life as the time needed for the level to fall by half in the phase considered.

The values are drawn from PMC7168933, “Design, Synthesis and Biochemical Evaluation of Novel Ethanoanthracenes and Related Compounds to Target Burkitt’s Lymphoma” (Pharmaceuticals, 2020).
